{"source": "patent US8609718B2", "about": "“Pharmaceutical composition used in treatment of hyperproliferative skin conditions and malignant melanomas comprising pachastrissamine as active ingredient” (Catholic University Industry Academy Cooperation Foundation, priority 2009, dated 2013)", "key": {"FoxO3a": {"system": "FoxO3a", "assay": "Immunocytochemistry of intracellular FoxO3a distribution", "format": "cell-based", "experimental": "In order to carry out Immunocytochemistry analysis, cells were transferred to chamber slides, and cultured in a CO2 incubator (37° C., 5%) for 24 hours. After about 12 hours of serum starvation, the cultured cell lines were treated with 10 μg/ml of pachastrissamine for 24 hours. The cell lines treated with pachastrissamine were fixed with 100% methanol, and washed with PBS. Then, in order to make the cells permeable, the cell lines were reacted in a 0.5% Triton X-100 and washed with a PBS solution. Then, by using a solution including 10% FBS and 0.1% gelatin, blocking was carried out at room temperature for 1 hour, and FoxO3a antibody was reacted at 4° C. for 12 hours. After the reaction, the cells were washed with PBS, reacted with a secondary antibody of Alex488 (invitrogen) at room temperature, and washed with PBS again. Finally, for nuclear stain, the cells were reacted with DAPI and washed with PBS. The slide was washed with PBS, attached with glass coverslip, and analyzed through a microscope.\nAfter the cells with or without over-expression of beta-catenin were treated with pachastrissamine, the distribution of intracellular FoxO3a protein was determined in the same manner as described in Example 4-3."}, "ERK": {"system": "ERK", "assay": "Western blotting of ERK activity (pERK) in HaCaT", "format": "cell-based, human", "settings": "pachastrissamine 10 μg/ml, U0126 20 nM, 30 minutes, FIG. 3C", "experimental": "A HaCaT cell line was cultured in the same manner as described in Example 1. […] The last group was a negative control group (−) and was added with nothing."}, "AKT": {"system": "AKT", "assay": "Western blotting of AKT phosphorylation", "format": "cell-based", "settings": "HaCaT, B16F10, A375, 10 μg/ml pachastrissamine, FIGS. 3A, 3B", "experimental": "HaCaT, B16F10 and A375 cell lines were cultured in the same manner as described in Example 1. […] 30 minutes later, and 60 minutes later, each of the cell lines was resuspended in RIPA buffer [12 mM EDTA, 137 mM NaCl, 20 mM Tris-HCl (pH 8.0), 1 mM Na3VO4 (Sigma-Aldrich, USA) 10 mM NaF (Sigma), 1 mM PMSF (Sigma), 1% Triton X-100, 10% glycerol, protease inhibiting cocktail (Roche, Germany)], and then put on ice for 30 minutes so that the cells can be completely lysed. The lysate was centrifuged at 14000 rpm for 30 minutes, and the supernatant was collected. A BCA protein analysis kit (Pierce, Rockford, Ill.) was used to determine the concentration of each sample, and the sample was subjected to electrophoresis (SDS-PAGE). Western blotting was carried out on the protein isolated by the electrophoresis. After electrophoresis of the sample, the protein was transferred to a polyvinylidene fluoride membrane (Pall Corporation). Then, after blocking the membrane at room temperature for one hour using 5% BSA solution (Amresco, USA), it was treated with primary antibodies and reaction was carried out for 12 hours at 4° C. The primary antibodies were AKT antibody and Actin antibody (Cell Signaling Technology, Beverly, Mass.), which are antibodies associated in cell proliferation-related signaling. After reaction with primary antibodies, it was washed for about 30 minutes and further reacted for 1 hour at room temperature by treating with HRP-conjugated secondary antibodies. Then, after washing sufficiently for over 30 minutes, protein was identified using an ECL detection kit (intron Biotechnology)."}}, "note": "“Also recorded” adds a separate entry of the source."}
{"smiles": "CCCCCCCCCCCCCC[C@@H]1OC[C@H](N)[C@@H]1O", "note": "[pachastrissamine]", "values": [{"measurement": "movement of FoxO3a protein to a nucleus", "setting": "FoxO3a; 10 μg/ml, 24 hours, FIG. 4D", "value": "significantly increased"}, {"measurement": "distribution of intracellular FoxO3a protein in cells with over-expression of beta-catenin", "setting": "FoxO3a; HaCaT with over-expression of beta-catenin (FoxO3a mostly in cytosol before treatment), FIG. 5D", "value": "moved into the nucleus again"}, {"measurement": "ERK activation (phosphorylation of ERK)", "setting": "ERK", "value": "almost completely inhibited the phosphorylation of ERK; also recorded: reduction of ERK activation"}, {"measurement": "phosphorylation of AKT after 30 minutes", "setting": "AKT; 5 μg/ml phytosphingosine, 30 minutes", "value": "reduction of phosphorylation of AKT"}, {"measurement": "degree of AKT phosphorylation after 60 minutes", "setting": "AKT; 60 minutes", "value": "increased"}]}
